Experimental data taken from article PMC3004257, “Purine nucleoside phosphorylase from Schistosoma mansoni in complex with ribose-1-phosphate” (Journal of Synchrotron Radiation, 2010).

How the values were obtained:
[1] = target: T1, SmPNP (Schistosoma mansoni purine nucleoside phosphorylase) (Schistosoma mansoni, UniProt Q9BMI9); experiment: X-ray crystallography, crystal soaking; details: soaking aimed at ternary complex with R1P; base binding site
T1 construct: low-molecular-mass homotrimer
T1 sequence (Q9BMI9 1-287): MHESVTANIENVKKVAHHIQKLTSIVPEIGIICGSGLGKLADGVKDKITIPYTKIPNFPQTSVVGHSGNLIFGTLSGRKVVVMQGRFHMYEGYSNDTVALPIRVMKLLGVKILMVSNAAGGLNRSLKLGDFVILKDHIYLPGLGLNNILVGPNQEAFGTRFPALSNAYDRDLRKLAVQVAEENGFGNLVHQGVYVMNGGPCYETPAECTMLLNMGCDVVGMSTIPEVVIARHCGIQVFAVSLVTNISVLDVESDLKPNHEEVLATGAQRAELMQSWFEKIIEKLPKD

[2] = target: T1, SmPNP (Schistosoma mansoni purine nucleoside phosphorylase); experiment: X-ray crystallography, crystal soaking, […] Å; format: binding; details: 5 mM R1P soak up to 48 h, 20% PEG 1500, 15 mM sodium acetate pH 4.9 or 5.0, 20% glycerol; phosphate and ribose sites of all three subunits; acetate in base site

O=c1[nH]cnc2nc[nH]c12 [hypoxanthine]
X-ray crystallography, crystal soaking [1]: by soaking were unsuccessful, SmPNP–hypoxanthine complexes being obtained instead

O=P(O)(O)O[C@H]1O[C@H](CO)[C@@H](O)[C@H]1O [ribose-1-phosphate]
X-ray crystallography, crystal soaking, 2.0 Å [2]: we have been able to obtain the elusive binary complex of SmPNP with R1P
